Laboratory results taken from patent publication US11213481B2, “Tumescent drug delivery” (priority 2004, dated 2022).
Converted amounts (≈) assume the structure as drawn. “And” between values parts separate entries of the source, which are not always exact repeats. Equal entries are not always repeated. Where two headings read alike, the source gives them in different places.

Columns and labels:
[1] = cited from earlier work
[2] = cited from earlier work; remark: listed apart in the source
clinical = conditions: human, in vivo
Procedure: A clinical pharmacologic investigation was conducted to compare the pharmacokinetic advantages of two modes of systemic antibiotic delivery, Tumescent antibiotic delivery (TAD), which involves the delivery of a relatively large volume of an antibiotic-containing solution to the subcutaneous compartment, and intravenous antibiotic delivery (IVAD), which results in direct delivery of antibiotics to the blood stream, for prophylaxis of SSI.
With Institutional Review Board (IRB) approval, the absorption pharmacokinetics of tumescent antibiotic delivery (TAD) and intravenous antibiotic delivery (IVAD) were tested in human subjects and the antibiotic delivery modes were evaluated with respect to the area under the curve (AUC) of antibiotic concentration as a function of time and peak antibiotic concentration (Cmax) in serum and TISF. 4 female subjects participated in at least one study, one subject volunteered for 2 separate studies. 5 studies were conducted: 3 involved TAD to the abdomen, 1 involved TAD to the hips and outer thighs and 1 involved TAD to the breasts. […] Each of the 5 studies consisted of 2 to 3 pharmacokinetic procedures, for a total of 14 procedures. Any procedures conducted on an individual subject were separated by at least one week. In 13 procedures only IVAD or TAD, was used. In one procedure both IVAD and TAD were used concurrently, with IVAD started and finished within five minutes after completing TAD.
TAD was conducted as described herein. Following TAD, sequential 10 ml samples of tumescent adipose tissue were obtained using a hand-held syringe-liposuction technique. Sampling began immediately after completing the TAD infiltration (T0), and continuing until the patients reported significant discomfort. Liposuction aspirate samples were obtained at 0, 1, 2, 3, 4, 6, and 8 hours in all procedures; in 4 TAD procedures, sampling continued until 10 hours. Sequential serum samples for measurement of antibiotic concentration in serum after TAD ([Serum]TAD) were obtained simultaneously.
For IVAD, the antibiotic was delivered into an antecubital vein. Following IVAD, serum samples were taken from the contralateral arm via an indwelling venous catheter beginning immediately after completion of the antibiotic delivery (T0).
The samples of liposuction aspirate were centrifuged to obtain infranatant TISF, which comprises minimally blood-tinged tissue-free residual tumescent solution.
AUC (Area Under the Curve) of drug concentration as a function of time, a metric for measuring the cumulative exposure to an individual drug within a specified tissue, was estimated for time T0 to time Tn using the trapezoid rule: […]

[3] = test system: platelet aggregation induced by ADP, epinephrine and collagen; conditions: cited from earlier work
[4] = test system: Staphyloccus aureus (MRSA) ATCC 33592; test: Minimum Bactericidal Concentration (MBC); type: cell-based, Staphylococcus aureus
Description: Determinations of MBC followed the method described in “Report on the Working Party on Antibiotic Sensitivity Testing of the British Society of Antimicrobial Chemotherapy: A Guide to Sensitivity Testing.”

[5] = 1 gm at the end of the surgery; 405 abdominal surgery patients; cited from earlier work
platelet function = test: Bleeding time and bleeding area before and after tumescent lidocaine exposure (preliminary experiment); type: in vivo, human
Procedure: The skin of the left and right thigh of a subject is cleaned and allowed to dry. […] Simultaneous 4 mm deep puncture wounds are made to the same area of the left and right thighs with disposable lancets. The puncture sites are blotted with filter paper every 30 seconds, until bleeding stops and the bleeding time for each thigh is recorded. The bleeding times of the left and right thigh are compared to determine if administration of TLAnti increases bleeding time. Normal bleeding time measured by the Duke method is 1 to 3 minutes.
In a preliminary experiment, bleeding time and bleeding area were measured in a patient before and after tumescent lidocaine exposure. […] In contrast, there was a 40% increase in Average Bleeding Area (BA). Bleeding Area (BA) was a more sensitive and a more specific test for platelet function compared to Bleeding Time (BT). […] In otherwords, TAD may reduce the risk of both post-operative surgical site infection and post-operative thromboembolism.

[6] = routine local anesthesia with lidocaine; cited from earlier work
S. aureus = conditions: effect increases with greater duration of exposure; cited from earlier work
[7] = cited from earlier work; remark: listed apart in the source
[8] = test system: Staphyloccus aureus (MRSA) ATCC 33592; test: Minimum Inhibitory Concentration (MIC); conditions: Staphylococcus aureus
Procedure: Following inoculation, survival of test microorganisms was determined.

[9] = after vs before tumescent lidocaine exposure
[10] = post-op tumescent lidocaine exposure, Pt# 1, tests T3, T4

For `CO[C@@]1(NC(=O)Cc2cccs2)C(=O)N2C(C(=O)O)=C(COC(N)=O)CS[C@@H]21` [cefoxitin], the “subjects with penetration P=AUC[ISF]IVAD/AUC[SERUM]IVAD less than 0.1” value ([1]; normal controls) is listed as 3/10, the “Penetration PR” value ([1]; normal weight volunteers, microdialysis) is listed as 0.37±0.26 and the “degree of antibiotic penetration into ISF relative to normal weight subjects” value ([1]; obese patients) is listed as 22%. For the same compound, the “subjects with penetration P=AUC[ISF]IVAD/AUC[SERUM]IVAD less than 0.1” value ([1]; obese subjects) was 8/10 and the protein binding [2] was “approximately 72%”.
In the case of `Cc1ncc([N+](=O)[O-])n1CCO` [Metronidazole], the “interval in which serum concentration of metronidazole exceeded 4 μg/ml” value (clinical; female) is reported as 0 to 12 h, the “interval in which serum concentration of metronidazole exceeds 4 μg/ml” value (clinical; female) is reported as 0 to 12 h and the AUC (clinical; female, 500 mg, AUC[Serum]IVAD, metronidazole, Study 4, IVAD dose 500 mg) is reported as 122 µg·h/mL. It also gave an AUC (clinical; female, 500 mg, AUC[Serum]TAD) of 67 µg·h/mL, an AUC (clinical; female, 500 mg, AUC[TISF]TAD) of 2600 µg·h/mL and an AUC (clinical; female, 600 mg, AUC[Serum]IVAD, metronidazole, Study 5, IVAD dose 600 mg) of 127 µg·h/mL. For the same compound, the AUC (clinical; female, 600 mg, AUC[Serum]TAD) was 81 µg·h/mL, the AUC (clinical; female, 600 mg, AUC[TISF]TAD, metronidazole, Study 5 (Abdomen) TAD1: 600 mg, 172 mg/L in TAD) was 1030 µg·h/mL and the “ER3 = ER1/ER2 = AUC[TISF]TAD/AUC[Serum]TAD” value (clinical; 500 mg) was 38.8. For the same compound, the “ER3 = ER1/ER2 = AUC[TISF]TAD/AUC[Serum]TAD” value (clinical; 600 mg) was 12.7.
For `CCCCN1CCCCC1C(=O)Nc1c(C)cccc1C` (stereo not drawn) [bupivacaine], the “platelet aggregation induced by ADP” value [3] is given as “inhibit”.
In the case of `Cc1nnc(SCC2=C(C(=O)O)N3C(=O)[C@@H](NC(=O)Cn4cnnn4)[C@H]3SC2)s1` [Cefazolin], the “MRSA growth (MBC test)” value ([4]; Day 1, Cefazolin 62.5 mg/L, MRSA inoculum 4.7 × 10^5 CFU/ml) is reported as “+”, the “MRSA growth (MBC test)” value ([4]; Day 1, Cefazolin 125 mg/L, MRSA inoculum 4.7 × 10^5 CFU/ml) is reported as “+” and the “MRSA growth (MBC test)” value ([4]; Day 1, Cefazolin 250 mg/L, MRSA inoculum 4.7 × 10^5 CFU/ml) is reported as 0. For the same compound, the “MRSA growth (MBC test)” value ([4]; Day 2, Cefazolin 62.5 mg/L, MRSA inoculum 4.4 × 10^5 CFU/ml) was “+”, the “MRSA growth (MBC test)” value ([4]; Day 2, Cefazolin 125 mg/L, MRSA inoculum 4.4 × 10^5 CFU/ml) was “+” and the “MRSA growth (MBC test)” value ([4]; Day 2, Cefazolin 250 mg/L, MRSA inoculum 4.4 × 10^5 CFU/ml) was 0.
For `O=C(Cc1cccs1)N[C@@H]1C(=O)N2C(C(=O)[O-])=C(C[n+]3ccccc3)CS[C@H]12` [cephaloridine], the “incidence of wound infection, intravenous vs intra incisional” value [5] is listed as “no significant difference”.
For `CCN(CC)CC(=O)Nc1c(C)cccc1C` [Lidocaine], the “MRSA growth (MBC test)” value ([4]; Day 1, Lidocaine 1,000 mg/L, MRSA inoculum 4.7 × 10^5 CFU/ml) was “+”, the “MRSA growth (MBC test)” value ([4]; Day 2, Lidocaine 1,000 mg/L, MRSA inoculum 4.4 × 10^5 CFU/ml) was “+” and the “MRSA growth (MBC test)” value ([4]; Day 2, Lidocaine 5,000 mg/L, MRSA inoculum 4.4 × 10^5 CFU/ml) was “+”. The “MRSA growth (MBC test)” value ([4]; Day 2, Lidocaine 10,000 mg/L, MRSA inoculum 4.4 × 10^5 CFU/ml) was 0, the “change in Average Bleeding Time (BT)” value (platelet function; [9]) was “essentially no change” and the “increase in Average Bleeding Area (BA)” value (platelet function; [9]) was 40%. For the same compound, the “Lidocaine BA (Average Bleeding Area)” value (platelet function; post-op tumescent lidocaine exposure, Control BA = 541) was “BA = 759”, the “Lidocaine BT (Average Bleeding Time)” value (platelet function; post-op tumescent lidocaine exposure, Control BT = 6) was “BT = 5.75” and the “Bleeding Area BA” value (platelet function; [10]) was 791.81 and 726.03. For the same compound, the “Bleeding Time BT × 2” value (platelet function; [10]) was 10 and 13, the “lidocaine concentration that consistently inhibits in-vitro platelet aggregation” value ([3]; aggregation induced by ADP, epinephrine and collagen) was ≥ 0.5 mg/mL and the “effect on platelet aggregation” value ([3]; at safe systemic concentrations (e.g. ≤6 micrograms/ml)) was “no effect”. The “platelet aggregation induced by ADP” value [3] was “inhibit”, the “duration of local anesthesia” value [6] was ~2 h and the “bactericidal activity in vitro” value (S. aureus) was “bactericidal”. The “dosage limitation approved by the FDA for infiltration local anesthesia” value ([7]; commercial lidocaine (1%=10 gm/L) with epinephrine (1:100,000=10 mg/L)) was 7 mg/kg, the “maximum safe mg/kg dosage (estimated)” value ([7]; tumescent lidocaine, TLA without liposuction, adults) was ~30 mg/kg and the MIC [8] was ~5000 µg/mL (≈ 21.3 mM).
In the case of `CCOC(=O)c1ccc(N)cc1` [benzocaine], the “platelet aggregation induced by ADP” value [3] is listed as “inhibit”.
